# Data as given in patent publication US10278999B2, “Synthesis of Nuxia oppositifolia nanoparticles” (KING SAUD UNIVERSITY, priority 2017, dated 2019).
# What was measured:
# Assay in all cases: Antimicrobial activity, agar diffusion technique
# Type in all cases: cell-based
# Settings in all cases: mean ± S.D. beyond well diameter (6 mm), 100 μl of samples
# [1] = system: Candida albicans (RCMB 05036)
# Description: (§1) The antimicrobial effect of N. oppositifolia nanoparticles synthesized according to Example 1 were evaluated against gram positive bacteria, gram negative bacteria, as well as fungi.
# (§2) The antimicrobial effect of N. oppositifolia nanoparticles synthesized according to Example 2 were evaluated against gram positive bacteria, gram negative bacteria, as well as fungi.
# [2] = system: Absidia corymbifera (RCMB 02564)
# Description: as §1, §2
# [3] = system: Geotricum candidum (RCMB 05097)
# Description: as §1, §2
# [4] = system: Staphylococcus epidermidis (RCMB 010024)
# Description: as §1, §2
# [5] = system: Streptococcus pyogenes (RCMB 010015)
# Description: as §1, §2
# [6] = system: Klebsiella pneumoniae (RCMB 0010093)
# Description: as §1, §2
# [7] = system: Proteous vulgaris (RCMB 010085)
# Description: as §1, §2
# [8] = system: Salmonella enteritidis (RCMB 010084)
# Description: as §1, §2
compound,measurement,setting,value
C[C@@H]1[C@H](O)[C@@H](C)/C=C/C=C/C=C/C=C/C=C/C=C/C=C/[C@H](O[C@@H]2O[C@H](C)[C@@H](O)[C@H](N)[C@@H]2O)C[C@@H]2O[C@](O)(C[C@@H](O)C[C@@H](O)[C@H](O)CC[C@@H](O)C[C@@H](O)CC(=O)O[C@H]1C)C[C@H](O)[C@H]2C(=O)O [Amphotericin B],Zone of Inhibition (±SD),[1],25.7 ± 0.10 mm
same,Zone of Inhibition (±SD),[2],23.0 ± 0.10 mm
same,Zone of Inhibition (±SD),[3],27.0 ± 0.20 mm
CC1(C)S[C@@H]2[C@H](NC(=O)[C@H](N)c3ccccc3)C(=O)N2[C@H]1C(=O)O [Ampicillin],Zone of Inhibition (±SD),[4],25.0 ± 0.18 mm
same,Zone of Inhibition (±SD),[5],26.3 ± 0.34 mm
Gentamycin,Zone of Inhibition (±SD),[6],26.4 ± 0.15 mm
same,Zone of Inhibition (±SD),[7],23.4 ± 0.30 mm
same,Zone of Inhibition (±SD),[8],25.2 ± 0.18 mm
